In brackets after ≈: the same amount, converted by molar mass.
Settings: not given

In order of rising logP:
1. N#CCCNCCC#N  -1.34
2. Cc1cc(=O)nc(C(C)C)[nH]1  0.55
3. COc1ccccc1OCC(O)COC(N)=O (centres undefined)  0.61
4. CCC(C)=NO  0.63
5. C=CC(OC(C)=O)OC(C)=O  0.78
6. CC(C)[N+](=O)[O-]  0.93
7. OCC(O)c1ccccc1Cl (centres undefined)  1.17
8. CC(C)CN1CCOCC1  1.17
9. CC(C)C(O)C(C)(C)CO (centres undefined)  1.24
10. O=P(OCCCl)(OCCCl)OCCCl  1.44
11. CC(C)(C)C(=O)O  1.48
12. C=Cc1ccccn1  1.54
13. CC(=O)CC(=O)Nc1ccc(-c2ccc(NC(=O)CC(C)=O)c(C)c2)cc1C  1.75
14. C=CCOP(=O)(OCC=C)OCC=C  1.76
15. COc1c(N)cccc1[N+](=O)[O-]  1.78
16. COc1ccc(N)c([N+](=O)[O-])c1  1.94
17. CCN(CC)c1ccc2c(-c3ccccc3C(=O)O)c3ccc(N(CC)CC)cc3[o+]c2c1.[Cl-]  1.95
18. Cc1ccc(O)cc1[N+](=O)[O-]  2.18
19. CNc1cccc(C)c1  2.19
20. ClCC(Cl)CCl  2.27
21. BrC(Br)Br  2.4
22. C=CC(=C)C  2.42
23. Cc1ccc([N+](=O)[O-])cc1O  2.47
24. CCc1ccccc1[N+](=O)[O-]  2.58
25. CC(CCl)OP(=O)(OC(C)CCl)OC(C)CCl (centres undefined)  2.59
26. COC(=O)c1ccccc1C(=O)c1ccccc1  2.7
27. ClCC(Cl)(Cl)CCl  2.72
28. OCc1ccc(Cl)c(Cl)c1  2.74
29. S=C(SSSSC(=S)N1CCCCC1)N1CCCCC1  2.8
30. Cc1ccc(Cl)c(O)c1  2.9
31. O=C1CCCCCCCCCCCN1  2.92
32. ClCC(Br)CBr (centres undefined)  2.96
33. O=C1CCCCC1C1=CCCCC1 (centres undefined)  3.17
34. O=[N+]([O-])c1ccc(Cl)cc1C(F)(F)F  3.2
35. ClC(Cl)C(Cl)C(Cl)Cl  3.23
36. N#CSCSc1nc2ccccc2s1  3.3
37. Nc1ccc2c(c1)C(=O)c1ccccc1C2=O  3.31
38. CCNc1cccc2ccccc12  3.45
39. COc1cccc2ccccc12  3.45
40. Oc1ccc(Cc2ccccc2)cc1  3.47
41. CC(C)=CC=C(C)C  3.5
42. OC(c1ccccc1)c1ccc(Cl)cc1 (centres undefined)  3.61
43. O=P(OC(CCl)CCl)(OC(CCl)CCl)OC(CCl)CCl  3.65
44. S=C(NC1CCCCC1)NC1CCCCC1  3.69
45. Nc1cccc2c1C(=O)c1ccccc1C2=O  3.74
46. CCCCOCCOP(=O)(OCCOCCCC)OCCOCCCC  3.75
47. COc1ccc(C(=O)c2ccccc2)c(O)c1  3.79
48. CC=C1CC2C=CC1C2 (centres undefined)  3.82
49. Nc1ccc(Cc2ccc(N)c(Cl)c2)cc1Cl  3.91
50. C=CC1CC=CCC1 (centres undefined)  3.93
51. BrCC(CBr)(CBr)CBr  3.99
52. C=Cc1cccc(CC)c1  4.11
53. C=CC(=C)CCC=C(C)C  4.17
54. C=Cc1ccc(CC)cc1  4.19
55. Oc1c(Cl)cc(Cl)c2ccccc12  4.23
56. CC(C)CCOCCC(C)C  4.25
57. ClCCOC(c1ccccc1)c1ccccc1  4.38
58. C=C(C)C(=O)OCC(CC)(COC(=O)C(=C)C)COC(=O)C(=C)C  4.39
59. O=C1c2ccccc2C(=O)c2c1ccc1ccccc21  4.4
60. C=C(C)CC(C)(C)C  4.55
61. ClC1C(Br)C(Br)C(Br)C(Br)C1Br (centres undefined)  4.72
62. CCOC(=O)C(O)(c1ccc(Cl)cc1)c1ccc(Cl)cc1  4.74
63. Oc1cc(Cl)ccc1Oc1ccc(Cl)cc1Cl  4.76
64. CCOP(=S)(Oc1ccc([N+](=O)[O-])cc1)c1ccccc1 (centres undefined)  4.78
65. O=C1c2ccccc2-c2cccc3cccc1c23  4.81
66. Cc1ccc(C(C)(C)C)cc1  5.17
67. CC(C)(C)c1ccc(O)c(C(C)(C)C)c1  5.19
68. ClC(c1ccccc1)(c1ccccc1)c1ccccc1  5.25
69. CC(C)(OOC(C)(C)c1ccccc1)c1ccccc1  5.5
70. Cc1ccc(C)c(Cc2ccccc2)c1  5.65
71. CCCCC(CC)CN1C(=O)C2C(C1=O)C1(C(C)C)C=CC2(C)CC1 (centres undefined)  5.96
72. CC(C)(C)c1cc(C(C)(C)C)c(O)c(C(C)(C)C)c1  6.06
73. Cc1cc(Cc2cc(C)cc(C(C)(C)C)c2O)c(O)c(C(C)(C)C)c1  6.25
74. CC1CC(C)(C)CC(OOC(C)(C)C)(OOC(C)(C)C)C1 (centres undefined)  6.53

In order of rising solubility:
1. CC1CC(C)(C)CC(OOC(C)(C)C)(OOC(C)(C)C)C1 (centres undefined)  1.98 µM (≈ 0.6 µg/mL)
2. CC(C)COc1ccc2ccccc2c1  6.14 µM (≈ 1.23 µg/mL)
3. CCCCOC(=O)CC(CC(=O)OCCCC)(OC(C)=O)C(=O)OCCCC  12.4 µM (≈ 5 µg/mL)
4. CCCCC(CC)COC(=O)/C=C/C(=O)OCC(CC)CCCC (centres undefined)  294 µM (≈ 100 µg/mL)
5. CCCCCC1C(=O)CCC1CC(=O)OC (centres undefined)  1240 µM (≈ 280 µg/mL)
6. COC(=O)c1cccc(C(=O)OC)c1  1490 µM (≈ 290 µg/mL)
7. CC(C)(O)CCCC1=CCC(C=O)CC1 (centres undefined)  29000 µM (≈ 6100 µg/mL)

Same assay, conditions: 20 °C

For `COC(C)CCOC(C)=O` (centres undefined), the solubility was 31500 µM (≈ 4600 µg/mL).

Same assay, conditions: 25 °C

In order of rising solubility:
1. Cc1cc(Cc2cc(C)cc(C(C)(C)C)c2O)c(O)c(C(C)(C)C)c1  0.0587 µM (≈ 0.02 µg/mL)
2. CCCCCCCCN(CCCCCCCC)CCCCCCCC  0.141 µM (≈ 0.05 µg/mL)
3. CC(C)(OOC(C)(C)c1ccccc1)c1ccccc1  1.7 µM (≈ 0.46 µg/mL)
4. CCC(C)c1cccc(C(C)CC)c1O (centres undefined)  8.72 µM (≈ 1.8 µg/mL)
5. O=[N+]([O-])c1c(Cl)cc(Cl)cc1Cl  27.6 µM (≈ 6.25 µg/mL)
6. c1ccc2sc(SSc3nc4ccccc4s3)nc2c1  30.1 µM (≈ 10 µg/mL)
7. C=C1C2CCC(C2)C1(C)C (centres undefined)  33.8 µM (≈ 4.6 µg/mL)
8. O=C(OOC(=O)c1ccccc1)c1ccccc1  37.6 µM (≈ 9.1 µg/mL)
9. C=CC(=C)CCC=C(C)C  41.1 µM (≈ 5.6 µg/mL)
10. COc1cccc2ccccc12  63.2 µM (≈ 10 µg/mL)
11. CC=C1CC2C=CC1C2 (centres undefined)  74 µM (≈ 8.9 µg/mL)
12. O=[N+]([O-])c1cc(Cl)cc(Cl)c1O  81.7 µM (≈ 17 µg/mL)
13. Oc1c(Cl)cc(Cl)c(Cl)c1Cl  99.2 µM (≈ 23 µg/mL)
14. CC(C)(C)c1cc(C(C)(C)C)c(O)c(C(C)(C)C)c1  133 µM (≈ 35 µg/mL)
15. CC(C)(C)c1ccc(O)c(C(C)(C)C)c1  170 µM (≈ 35 µg/mL)
16. CCc1cccc(CC)c1  179 µM (≈ 24 µg/mL)
17. Nc1c(Cl)cc(Cl)cc1Cl  204 µM (≈ 40 µg/mL)
18. O=C(O)c1ccc2ccccc2c1  273 µM (≈ 47 µg/mL)
19. c1ccc(Nc2cccc3ccccc23)cc1  274 µM (≈ 60 µg/mL)
20. CC(C)=CC=C(C)C  290 µM (≈ 32 µg/mL)
21. CCCCCC(=O)CCCCC  294 µM (≈ 50 µg/mL)
22. OC(c1ccccc1)c1ccc(Cl)cc1 (centres undefined)  325 µM (≈ 71 µg/mL)
23. COC(=O)c1ccccc1C(=O)c1ccccc1  333 µM (≈ 80 µg/mL)
24. Oc1ccc(Cc2ccccc2)cc1  397 µM (≈ 73.2 µg/mL)
25. O=[N+]([O-])c1ccc(Cl)cc1C(F)(F)F  443 µM (≈ 100 µg/mL)
26. CCCCCCCCC#N  503 µM (≈ 70 µg/mL)
27. CCNc1cccc2ccccc12  642 µM (≈ 110 µg/mL)
28. COc1ccc(N)c([N+](=O)[O-])c1  714 µM (≈ 120 µg/mL)
29. N#CCc1ccccc1  854 µM (≈ 100 µg/mL)
30. O=C1CCCCCCCCCCCN1  1470 µM (≈ 290 µg/mL)
31. CC(C)=CCC/C(C)=C/CO  1490 µM (≈ 230 µg/mL)
32. CCc1ccccc1[N+](=O)[O-]  1590 µM (≈ 240 µg/mL)
33. ClC(Cl)C(Cl)C(Cl)Cl  1900 µM (≈ 410 µg/mL)
34. CNC(=O)Oc1ccccc1C(C)C  2070 µM (≈ 400 µg/mL)
35. Nc1cccc2c(N)cccc12  2400 µM (≈ 380 µg/mL)
36. ClCC(Cl)(Cl)CCl  2640 µM (≈ 480 µg/mL)
37. C=CCc1ccc(OC)c(OC)c1  2810 µM (≈ 500 µg/mL)
38. N#Cc1ccccc1C#N  3080 µM (≈ 395 µg/mL)
39. COc1cccc([N+](=O)[O-])c1  3270 µM (≈ 500 µg/mL)
40. CC(CCl)OP(=O)(OC(C)CCl)OC(C)CCl (centres undefined)  3660 µM (≈ 1200 µg/mL)
41. Nc1ccc(Cl)cc1Cl  3830 µM (≈ 620 µg/mL)
42. Cc1ccsc1  4070 µM (≈ 400 µg/mL)
43. Cc1ccc(O)c([N+](=O)[O-])c1  4130 µM (≈ 633 µg/mL)
44. ClC1CCCCC1  4220 µM (≈ 500 µg/mL)
45. CCCC=C(C=O)CC  4640 µM (≈ 586 µg/mL)
46. N=C(Nc1ccccc1)Nc1ccccc1  4730 µM (≈ 1000 µg/mL)
47. O=C(O)c1ccccc1-c1ccccc1C(=O)O  5200 µM (≈ 1260 µg/mL)
48. Nc1cccc2cccc(N)c12  5370 µM (≈ 850 µg/mL)
49. CC(=O)Nc1ccccc1O  5820 µM (≈ 880 µg/mL)
50. Cc1ccc([N+](=O)[O-])cc1O  6530 µM (≈ 1000 µg/mL)
51. OCc1c(Cl)cccc1Cl  7910 µM (≈ 1400 µg/mL)
52. Cc1cc(C)c(O)c(C)c1  8810 µM (≈ 1200 µg/mL)
53. CNc1cccc(C)c1  8910 µM (≈ 1080 µg/mL)
54. O=C(O)C1C(C(=O)O)C2(Cl)C(Cl)=C(Cl)C1(Cl)C2(Cl)Cl (centres undefined)  9000 µM (≈ 3500 µg/mL)
55. OCc1ccc(Cl)c(Cl)c1  9040 µM (≈ 1600 µg/mL)
56. Oc1c(Cl)cccc1Cl  11700 µM (≈ 1900 µg/mL)
57. Oc1cc(Cl)ccc1Cl  12300 µM (≈ 2000 µg/mL)
58. C=C(C)CCl  15500 µM (≈ 1400 µg/mL)
59. CC(C)CNCC(C)C  17000 µM (≈ 2200 µg/mL)
60. Oc1cccc(Cl)c1Cl  22100 µM (≈ 3600 µg/mL)
61. CCCCNCCCC  36400 µM (≈ 4700 µg/mL)
62. C=CC(OC(C)=O)OC(C)=O  56900 µM (≈ 9000 µg/mL)
63. CN(C)Cc1ccccc1  88800 µM (≈ 12000 µg/mL)
64. CC(=O)N(C)c1ccccc1  112000 µM (≈ 16700 µg/mL)
65. Oc1cccc(Br)c1  133000 µM (≈ 23000 µg/mL)
66. OCC(CO)(CBr)CBr  145000 µM (≈ 38000 µg/mL)
67. Clc1ccccn1  176000 µM (≈ 20000 µg/mL)
68. CC(C)CN1CCOCC1  195000 µM (≈ 28000 µg/mL)
69. O=CC(Cl)(Cl)Cl  204000 µM (≈ 30000 µg/mL)
70. CCCCOCCOCCOC(C)=O  220000 µM (≈ 44900 µg/mL)
71. COc1ccc(O)cc1  322000 µM (≈ 40000 µg/mL)
72. C=C(C)C(=O)OCCO  768000 µM (≈ 100000 µg/mL)
